Experiment [1] is described as follows: DRUGMATRIX: Platelet-Derived Growth Factor (PDGF) radioligand binding (ligand: [125I] PDGF). The class given is cell-based. As to conditions: nih3t3; Not Active = under 50% inhibition at 10 µM.
Another experiment concerns the target Cannabinoid receptor 1 (Homo sapiens, UniProt P21554). In kind it is cell membranes, Chem-1, Membrane. The conditions noted are these: chem-1. Further: in other assays of this panel Not Active means under 50% inhibition at 10 µM.
The target of another experiment is T1, Thromboxane-A synthase (Homo sapiens, UniProt P24557).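 Further: enzyme inhibition assay with PGH2 supplied as substrate; in other assays of this panel Not Active means under 50% inhibition at 10 µM.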
T1 sequence (P24557 whole entry): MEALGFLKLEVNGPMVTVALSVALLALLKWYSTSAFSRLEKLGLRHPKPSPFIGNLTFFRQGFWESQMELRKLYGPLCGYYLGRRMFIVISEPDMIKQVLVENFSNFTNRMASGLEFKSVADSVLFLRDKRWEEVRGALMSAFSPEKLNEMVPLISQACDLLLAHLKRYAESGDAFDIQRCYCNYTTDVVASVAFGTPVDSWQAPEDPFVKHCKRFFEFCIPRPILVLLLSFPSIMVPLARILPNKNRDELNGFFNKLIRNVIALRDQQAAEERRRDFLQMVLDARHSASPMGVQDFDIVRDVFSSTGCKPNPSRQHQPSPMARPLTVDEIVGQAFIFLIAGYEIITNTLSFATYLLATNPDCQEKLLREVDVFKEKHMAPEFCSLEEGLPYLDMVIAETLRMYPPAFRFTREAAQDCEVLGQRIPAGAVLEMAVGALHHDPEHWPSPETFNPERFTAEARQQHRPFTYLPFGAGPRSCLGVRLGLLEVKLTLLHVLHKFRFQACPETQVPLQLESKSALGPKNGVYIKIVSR
Put plainly: biochemical. In kind it is tissue-based, Platelet. As to conditions: platelet.

Experiment [2] is described as follows: DRUGMATRIX: Glutamate, NMDA, Agonism radioligand binding (ligand: [3H] CGP-39653). The class given is cell membranes, Rattus norvegicus, Wistar, Cerebral cortex, Membrane. The conditions noted are these: Not Active = under 50% inhibition at 10 µM.
The target in experiment [3] is Beta-2 adrenergic receptor (Homo sapiens, UniProt P07550). Put plainly: DRUGMATRIX: Adrenergic beta2 radioligand binding (ligand: [3H] CGP-12177). In kind it is cell membranes, CHO, Membrane. The conditions noted are these: Not Active = under 50% inhibition at 10 µM.
Experiment [4] has as its target T2, Alpha-1B adrenergic receptor (Rattus norvegicus, UniProt P15823).
T2 sequence (P15823 whole entry): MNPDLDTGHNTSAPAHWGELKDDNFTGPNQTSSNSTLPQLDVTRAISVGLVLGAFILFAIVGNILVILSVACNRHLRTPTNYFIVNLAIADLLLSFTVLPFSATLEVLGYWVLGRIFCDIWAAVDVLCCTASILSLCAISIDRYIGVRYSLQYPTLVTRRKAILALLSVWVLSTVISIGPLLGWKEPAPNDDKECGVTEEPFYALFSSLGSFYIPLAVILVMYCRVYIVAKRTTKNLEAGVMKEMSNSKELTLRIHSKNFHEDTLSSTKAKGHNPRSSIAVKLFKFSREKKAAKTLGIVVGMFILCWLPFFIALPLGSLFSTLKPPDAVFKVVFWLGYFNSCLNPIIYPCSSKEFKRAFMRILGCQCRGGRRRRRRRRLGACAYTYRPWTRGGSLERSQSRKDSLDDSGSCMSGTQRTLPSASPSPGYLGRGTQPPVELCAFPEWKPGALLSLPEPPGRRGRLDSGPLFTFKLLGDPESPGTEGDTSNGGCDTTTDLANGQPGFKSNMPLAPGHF
Put plainly: DRUGMATRIX: Alpha-1B adrenergic receptor radioligand binding (ligand: prazosin). The class given is cell membranes, Wistar, Liver, Membrane. The conditions noted are these: Not Active = under 50% inhibition at 10 µM.

Nine compounds from ChEMBL document CHEMBL1909046, “DrugMatrix in vitro pharmacology data” can be followed below.

Chain of Cannabinoid receptor 1 (P21554 whole entry): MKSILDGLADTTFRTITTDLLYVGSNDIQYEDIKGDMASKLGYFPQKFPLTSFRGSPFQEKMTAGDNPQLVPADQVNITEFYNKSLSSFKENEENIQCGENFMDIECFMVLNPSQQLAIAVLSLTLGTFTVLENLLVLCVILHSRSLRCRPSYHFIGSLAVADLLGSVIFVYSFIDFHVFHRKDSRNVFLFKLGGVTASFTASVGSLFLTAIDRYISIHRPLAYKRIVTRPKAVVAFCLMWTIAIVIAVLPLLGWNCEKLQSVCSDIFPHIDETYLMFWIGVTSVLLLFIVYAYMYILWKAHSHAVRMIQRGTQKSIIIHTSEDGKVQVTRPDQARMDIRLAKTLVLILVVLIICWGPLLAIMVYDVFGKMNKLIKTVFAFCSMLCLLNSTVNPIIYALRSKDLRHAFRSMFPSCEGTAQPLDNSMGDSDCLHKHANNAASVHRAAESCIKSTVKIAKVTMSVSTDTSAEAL
Chain of Beta-2 adrenergic receptor (P07550 whole entry): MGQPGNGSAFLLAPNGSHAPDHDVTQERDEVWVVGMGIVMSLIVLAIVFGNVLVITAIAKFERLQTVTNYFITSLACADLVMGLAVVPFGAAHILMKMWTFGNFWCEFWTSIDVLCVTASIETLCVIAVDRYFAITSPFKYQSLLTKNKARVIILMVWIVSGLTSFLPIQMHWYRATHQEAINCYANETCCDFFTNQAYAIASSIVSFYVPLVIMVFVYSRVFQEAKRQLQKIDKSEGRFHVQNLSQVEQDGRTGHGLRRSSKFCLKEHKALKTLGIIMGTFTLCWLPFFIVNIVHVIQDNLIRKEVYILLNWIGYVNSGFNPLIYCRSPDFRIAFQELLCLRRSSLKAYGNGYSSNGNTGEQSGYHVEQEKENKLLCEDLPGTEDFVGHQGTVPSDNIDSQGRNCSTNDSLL

On to `CC(=O)Oc1ccc(C(c2ccc(OC(C)=O)cc2)c2ccccn2)cc1` [BISACODYL], for which the IC50 entry (in experiment [1]; against Cannabinoid receptor 1; at Thromboxane-A synthase; in experiment [2]; in experiment [3] (cho); in experiment [4]) was “Not Active” each time. The Ki entry in experiment [1] and in experiment [2] was “Not Active” in each case.
In the case of `Cc1cc2c(OCC(CNC(C)(C)C)OC(=O)c3ccccc3)cccc2[nH]1` (centres undefined) [BOPINDOLOL], the IC50 (as a rule, the midpoint of a concentration-inhibition curve) in experiment [1] was “Not Active”; against Cannabinoid receptor 1, “Not Active”; against Thromboxane-A synthase, “Not Active”; in experiment [2], “Not Active”; in experiment [3] (read-out: IC50), 20 nM; in experiment [4] it was “Not Active”. Besides, the Ki (usually a measure of affinity in units of concentration, obtained from inhibition or displacement) in experiment [1] is “Not Active”; in experiment [2], “Not Active”; in experiment [3] (read-out: Ki), 14 nM.
Regarding `Brc1c(NC2=NCCN2)ccc2nccnc12` [BRIMONIDINE], the IC50 result (in experiment [1]; at Cannabinoid receptor 1; at Thromboxane-A synthase; in experiment [2]; in experiment [3] (cho); in experiment [4]) was “Not Active” each time. Further, the inhibition constant Ki entry in experiment [1] and in experiment [2] was “Not Active” throughout.
On to `CN(C)[C@@H]1C(O)=C(C(N)=O)C(=O)[C@@]2(O)C(O)=C3C(=O)c4c(O)ccc(Cl)c4[C@@](C)(O)[C@H]3C[C@@H]12` [CHLORTETRACYCLINE], for which the IC50 entry (in experiment [1]; on Cannabinoid receptor 1; at Thromboxane-A synthase; in experiment [2]; in experiment [3] (cho); in experiment [4]) was “Not Active” each time. Further, the inhibition constant (Ki) entry in experiment [1] and in experiment [2] was “Not Active” each time.
On to `CN/C(=N\CCSCc1nc[nH]c1C)NC#N` [CIMETIDINE], for which the IC50 entry (in experiment [1]; against Cannabinoid receptor 1; on Thromboxane-A synthase; in experiment [2]; in experiment [3] (cho); in experiment [4]) was “Not Active” throughout. In addition, the Ki result in experiment [1] and in experiment [2] was “Not Active” each time.
For the compound `COc1cc(N)c(Cl)cc1C(=O)NC1CCN(CCCOc2ccc(F)cc2)CC1OC` (centres undefined) [CISAPRIDE], the IC50 result is “Not Active” in experiment [1]; “Not Active” on Cannabinoid receptor 1; “Not Active” on Thromboxane-A synthase; “Not Active” in experiment [2]; “Not Active” in experiment [3] (cho); 16 nM in experiment [4] (read-out: IC50). Also, the values for the inhibition constant (Ki) result in experiment [1], in experiment [2] and in experiment [4] (read-out: Ki) were “Not Active”, “Not Active” and 8.65 nM, respectively.
As to `CCC(=O)O[C@]1(C(=O)CCl)[C@@H](C)C[C@H]2[C@@H]3CCC4=CC(=O)C=C[C@]4(C)[C@@]3(F)[C@@H](O)C[C@@]21C` [CLOBETASOL PROPIONATE], the IC50 result (in experiment [1]; on Cannabinoid receptor 1; on Thromboxane-A synthase; in experiment [2]; in experiment [3] (cho); in experiment [4]) was “Not Active” in each case. Also, the Ki entry in experiment [1] and in experiment [2] was “Not Active” throughout.
Take `O=C1CN=C(c2ccccc2Cl)c2cc([N+](=O)[O-])ccc2N1` [CLONAZEPAM]: the half-maximal inhibitory concentration (IC50) result (in experiment [1]; on Cannabinoid receptor 1; against Thromboxane-A synthase; in experiment [2]; in experiment [3] (cho); in experiment [4]) was “Not Active” in each case. In addition, the Ki entry in experiment [1] and in experiment [2] was “Not Active” in each case.
`Nc1ccn([C@@H]2O[C@H](CO)[C@@H](O)[C@@H]2O)c(=O)n1` [CYTARABINE]: the IC50 entry (in experiment [1]; on Cannabinoid receptor 1; at Thromboxane-A synthase; in experiment [2]; in experiment [3] (cho); in experiment [4]) was “Not Active” each time. Further, the Ki result in experiment [1] and in experiment [2] was “Not Active” each time.
